The text below walks through data of patent publication US20070225338A1, “Juvenile Hormone Analogs for Control of Leafhopper and Treehopper Pests” (priority 2004, published 2007).

“And” between values parts separate entries of the source, which are not always exact repeats. Equal values may be shown once.

In one series the test system is GWSS. The conditions noted are these: cited from earlier work; for efficacy against GWSS (CDFA nursery shipping protocol list): in vivo; for speed of activity against GWSS: tested over several weeks, Redak and Bethke.
Series [1] relates to Homalodisca coagulata females. Nature of the series: Example 4: mortality of JH analog-treated field-collected gravid females. It counts as in vivo. As to conditions: 10 days post-treatment, fifteen females per treatment. The method, then:
The treatment rates for all three: methoprene, kinoprene, and hydroprene are listed below.
This example summarizes two ongoing tests involving field-collected gravid females and eggs oviposited less than 24 hours prior to treatment. […] After eclosion the neonates will be held on host plants until death or successful development to the second instar, which ever occurs first.
Fifteen females were used for each treatment. […] The females will be dissected to determine if there are sub-lethal effects of the JH analogs on the reproductive system.

The test system of series [2] is Draeculacephala crassicornis. The conditions noted are these: topical, substrate and vapor treatments; cited from earlier work.
Series [3] has as its system Homalodisca coagulata (Say). The series is described as follows: Example 1: females in diapause sprayed with compound, oviposition and dissection of reproductive system. It counts as in vivo. From the text: (§1) As described in Examples 1 and 2, the inventors topically applied methoprene in an aqueous solution to GWSS females that were: 1) over-wintering in reproductive diapause or 2) females that were newly eclosed adults and not yet reproductively active. […] Untreated females ordinarily will begin reproductive cycles 10-12 days post eclosion.
Ten female Homalodisca coagulata (Say) were sprayed until visibly wet with the candidate compound. They were then placed into a wooden 1 m screened cage that was provisioned with five males and glabrous soybean, Glycine max (L.) A similar untreated control cage was also set up with females sprayed with distilled water. All leafhoppers were taken from a greenhouse culture and were in the process of terminating winter reproductive diapause. Females were checked daily for the presence of brochosomes and plants were checked for egg masses. Cages were in a greenhouse maintained at 32° C. and equipped with artificial lighting for a 14:10 photoperiod. Surviving females were dissected after thirty days and their reproductive status was evaluated.

For series [4], the system named is egg parasitoids, Gonatocerus spp. Nature of the series: Impact on egg parasitoids. The conditions noted are these: non-target Gonatocerus spp.
The test system of the next series is GWSS females. The series is described as follows: Treatment of reproductively-active females. Format: in vivo, Homalodisca coagulata. The conditions noted are these: following weeks of evaluation.
The test system of another series is H. coagulata. Nature of the series: Example 2: newly-eclosed adult females treated with compound, dissection after 36 days. It counts as in vivo, Homalodisca coagulata. The method, then: as §1
Seven newly eclosed adult female H. coagulata were treated with the compound. The solution was applied with an aerosol device until individuals were noticeable wet. After treatment, female were placed into a wooden 1 m-screened cage that was provisioned with crape myrtle, eastern saltbush, and soybean. Five males of unknown ages were added to the cage. Female were dissected after 36 days. Males were discarded.

The next series has as its system GWSS nymphs. The series is described as follows: Treatment of GWSS nymphs. It counts as in vivo, Homalodisca coagulata.
Setting [5] is: treatment A: 1/100 of recommended dose.
The mark [6] stands for this setting: treatment B: 1/10 of recommended dose.
Setting [7] is: treatment D: 10× recommended dose.
The mark [8] stands for this setting: treated diapausing females, one value per surviving female, dissected after thirty days.
[9] abbreviates: newly eclosed adult females, one value per female, 36 days post-treatment.

For the compound `CNC(=O)Oc1cccc2ccccc12` [carbaryl], the “efficacy against GWSS (CDFA nursery shipping protocol list)” value (“efficacy against GWSS” for short) in the series with GWSS is “some efficacy”.

`Cc1c(COC(=O)[C@@H]2[C@H](/C=C(\Cl)C(F)(F)F)C2(C)C)cccc1-c1ccccc1` (racemic) [bifenthrin]: the “efficacy against GWSS” value in the series with GWSS was “some efficacy”.

As to `CC1(C)C(C=C(Cl)Cl)C1C(=O)OCc1cccc(Oc2ccccc2)c1` (stereo not shown) [permethrin], the “efficacy against GWSS” value in the series on GWSS is recorded as “some efficacy”.

As for `C#CCOC(=O)/C=C(C)/C=C/CC(C)CCCC(C)C` [kinoprene, 2-propynl (2E,4E)-(7S)-3,7,11-trimethyl-2,4-dodecadienoate], the “number of dead female Homalodisca coagulata” value (“number” for short) in series [1] (setting [5]) was 1; in series [1] (setting [6]), 1; in series [1] (treatment C: recommended dose), 0; in series [1] (setting [7]), 0.

Turning to `CC1(C)[C@H](C(=O)O[C@H](C#N)c2cccc(Oc3ccccc3)c2)[C@@H]1C=C(Br)Br` [deltamethrin], the “efficacy against GWSS” value in the series with GWSS is given as “some efficacy”.

For the compound `CC1(C)C(C(=O)OC(C#N)c2cccc(Oc3ccccc3)c2)C1(C)C` (stereo not shown) [fenpropathrin], in the series on GWSS, the “efficacy against GWSS” value is reported as “some efficacy”.

Consider `COP(=O)(NC(C)=O)SC` (stereo not shown) [acephate], for which the “efficacy against GWSS” value in the series on GWSS is recorded as “some efficacy”.

Take `CCOP(=S)(OCC)Oc1nc(Cl)c(Cl)cc1Cl` [chlorpyrifos]: the “efficacy against GWSS” value in the series on GWSS is “some efficacy”.

`CC(COc1ccc(Oc2ccccc2)cc1)Oc1ccccn1` (racemic) [pyriproxifen, 4-phenoxyphenyl (RS)-2-(2-pyridyloxy)propyl ether]: the “speed of activity against GWSS” value in the series with GWSS is on record as “too slow to be useful for eradication purposes”.

Turning to `COC(=O)C=C(C)CCC=C(C)CCC1OC1(C)C` (stereo not shown) [Juvenile hormone III], the effect on diapause entry in series [2] is listed as “terminated diapause”.

Take `COC(C)(C)CCC[C@H](C)C/C=C/C(C)=C/C(=O)OC(C)C` [methoprene, isopropyl (2E,4E)-11-methoxy-3,7,11-trimethyl-2-2,4-dodecadienoate]: the “reproductive activity of surviving treated females on dissection” value in series [3] (after 30 days) is given as “had not begun reproductive activity”. Further, the “eggs produced by treated females” value in series [3] (diapausing females, 30 days) is on record as “No eggs were produced”; in the series with H. coagulata (newly eclosed females, 36 days), “no eggs were produced”. Further, the “time treated females remained reproductively inactive” value in series [3] (diapausing females, topical aqueous solution, summer conditions (32° C., 14:10 L:D), untreated controls oviposit after 10 days) is “at least 30 days”. The “Brochosomes (within Malpigian tubules)” value in series [3] (setting [8]) is reported as 1. Also, the Fat body in series [3] (setting [8]) was 2; in the series with H. coagulata (setting [9]) it was 2.5 and 1.5 and 2. In addition, the Ova (in series [3] (setting [8]); in the series on H. coagulata (setting [9])) was 1 throughout. Moreover, the Ovarioles in series [3] (treated diapausing females, one value per surviving female, dissected after thirty days, 32° C., 14:10 photoperiod) is listed as 2; with H. coagulata (setting [9]), 2. In series [4], the “impact on egg parasitoids” value is reported as “no impact”. The “oviposition of treated reproductively-active females” value in the series with GWSS females is listed as “oviposited the eggs they contained then stopped”. The “time without egg production post-treatment” value with H. coagulata (36 days was the maximum time tested) is recorded as “at least 36 days”. In the series on H. coagulata (dissection of adult females), the “accumulated fat body in treated females” value is on record as “high amount of accumulated fat body”. Further, in the series with H. coagulata (dissection of reproductive system of adult females), the “effect on development of brochosomes and ovarioles” value was “inhibits the development of both brochosomes and ovarioles”. The Brochosomes in the series on H. coagulata (setting [9]) was 1 and 1.5. The “ovariole (reproductive) development on dissection” value with H. coagulata (newly eclosed females, 36 days) was “inhibited”. The “egg development and oviposition after treatment” value with H. coagulata (newly eclosed females, after 36 days of summer conditions, untreated begin 10-12 days post eclosion) is “did not develop eggs or oviposit”. The “number” value in series [1] (setting [5]), in series [1] (setting [6]), in series [1] (treatment C: recommended dose) and in series [1] (setting [7]) was 0 in each case. Also, the “effect of treating nymphs (mortality, time of development, morphology)” value with GWSS nymphs is recorded as “did not cause mortality, increase or decrease time of development, or induce morphological aberrations”.

Turning to `O=[N+]([O-])NC1=NCCN1Cc1ccc(Cl)nc1` [imidaclopid], the “efficacy against GWSS” value in the series on GWSS is “some efficacy”.

Regarding `O=C(NC(=O)c1c(F)cccc1F)Nc1ccc(OC(F)(F)C(F)OC(F)(F)F)c(Cl)c1` (stereo not shown) [novaluron], the “speed of activity against GWSS” value in the series with GWSS is “too slow to be useful for eradication purposes”.

`CCOC(=O)/C=C(C)/C=C/CC(C)CCCC(C)C` (stereo not shown) [hydroprene, ethyl (2E,4E)-3,7,11-trimethyl-2,4-dodecadienoate]: the “number” value in series [1] (setting [5]) is on record as 3; in series [1] (setting [6]) it was 0; in series [1] (treatment C: recommended dose), 0; in series [1] (setting [7]) it was 14.

In the case of `CNC(=O)Oc1cc(C)c(SC)c(C)c1` [methiocarb], the “efficacy against GWSS” value in the series with GWSS is “some efficacy”.

As for `CC(C)N1C(=O)N(c2ccccc2)CS/C1=N\C(C)(C)C` [buprofizen], the “speed of activity against GWSS” value with GWSS was “too slow to be useful for eradication purposes”.

Take `CC1(C)C(C=C(Cl)Cl)C1C(=O)OC(C#N)c1ccc(F)c(Oc2ccccc2)c1` (stereo not shown) [cyfluthrin]: the “efficacy against GWSS” value in the series on GWSS is listed as “some efficacy”.
